Like-named read-outs stand apart in the source and are kept apart here.
How the values were obtained:
[1] = test system: pseudotype virus pNL4.3ΔEnvLuc-HXB2; assay: microbe, parasite or virus in culture; settings: Human immunodeficiency virus 1, HXB2, read-out: IC50 HIV-1 entry
HIV-1 fusion = assay: Fusion assay, HeLa-ENV-Lai with HeLa-P4-CXCR4-LTRLacZ cells; format: cell-based; settings: Figure 8A
Description: Fusion inhibition was evaluated as previously described. Briefly, HeLa-ENV-Lai cells were pre-incubated with or without drugs for 2 h and added to HeLa-P4-CXCR4-LTRLacZ cells which were placed in a 96-well plate 1 day before. After 24 h, cells were washed with PBS and then incubated with 50 μL containing 0.5% NP-40 (Sigma, Belgium) for 15 min at room temperature. Fifty microliters chlorophenol red-β-D-galactopyranoside (CPRG) reagent (Roche, Sigma-Aldrich, Liège, Belgium) was then added into the plate. After 30 min incubation at room temperature in dark, β−galactosidase was assessed by measuring OD562 of the cells via POLARstar Omega plate reader (BMG Labtech, Ortenberg, Germany).

[2] = test system: HIV-1 gp120 / CD4 binding; assay: CD4-gp120 interaction assay (ELISA); settings: in-house ELISA
Description: Human soluble CD4 (sCD4) was immobilized in a 96-well plate by adding 100 ng sCD4 (R&D Systems, Belgium) in 100 μL PBS per well and incubated at 4 °C. After 24 h, the CD4 coated plate was washed with 1% BSA-PBS and blocked by adding 100μL 5% BSA-PBS per well for 1 h at 4 °C. The coated plate was then washed and incubated with or without drugs for 1 h at 4 °C. After washing, 100 ng HIV-1 gp120 protein (Fitzgerald, Acton, MA, USA) was added into the plate and kept for 1 h at 4 °C. The plate was washed, and anti-HIV-1 gp120 (Aalto Bio Reagents, Dublin, Ireland) (100 ng/100 μL PBS) was added. After 1 h, the plate was washed and anti-sheep HRP (Sigma, Belgium) (100 ng/100 μL PBS) was added. After 1 h incubation at 4 °C, 100 μL o-phenylenediamine dihydrochloride (OPD) (Thermo Fisher, Asse, Belgium) was added and incubated for 20 min in dark. One hundred microliters 0.5M H2SO4 was finally added to stop the reaction. OD492 and OD630 were measured by POLARstart Omega Plate Reader. OD492 − OD630 was calculated.

CCR5 = molecular target: T1, CCR5 (Homo sapiens, UniProt P51681); assay: Binding competition with anti-CCR5 antibody 2D7; settings: anti-CCR5 antibody 2D7, U373-CD4-CCR5 cells
T1 construct: host or cells: U373-CD4-CCR5 cells
T1 sequence (P51681 whole entry): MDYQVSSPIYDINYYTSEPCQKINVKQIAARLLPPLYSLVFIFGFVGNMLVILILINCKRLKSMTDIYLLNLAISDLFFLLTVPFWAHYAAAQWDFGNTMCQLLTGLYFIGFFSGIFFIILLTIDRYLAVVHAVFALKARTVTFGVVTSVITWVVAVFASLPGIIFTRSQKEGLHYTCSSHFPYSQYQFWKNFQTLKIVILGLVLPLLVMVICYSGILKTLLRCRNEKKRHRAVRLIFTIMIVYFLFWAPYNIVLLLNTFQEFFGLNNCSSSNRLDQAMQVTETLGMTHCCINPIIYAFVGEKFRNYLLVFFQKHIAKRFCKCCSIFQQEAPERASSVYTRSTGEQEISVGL
Description: Binding competition between increasing concentrations of compounds and FITC-conjugated mouse anti-human CD4 clone RPA-4 (Biolegend, Amsterdam, Netherlands), PE-conjugated mouse anti-Human CXCR4 clone 12G5, and PE-conjugated mouse anti-human CCR5 clone 2D7 (BD Pharma, Aalst, Belgium) to U373-CD4-CXCR4 and U373-CD4-CCR5 cells was first tested by flow cytometry (FACSCanto). […] After 1 h of incubation at 4 °C, cells were washed with FACS buffer (1% bovine serum albumin, 0.1% N3Na in PBS, Sigma), and Mean Fluorescence Intensity (MFI) was measured. […] Internalization was stopped after 30 min by addition of NaN3 (0.1%) on ice. Cells were stained with anti-human CXCR4 clone 4G10 (BD, Belgium) or anti-human CCR5 (CD195) clone T21/8, (eBioscience, Asse, Belgium), Near-IR fluorescent reactive dye during 1 h at 4 °C, washed with FACS buffer, and a secondary PE-conjugated goat anti-mouse antibody (Jackson ImmunoResearch, West Grove, PA, USA).

[3] = test system: pseudotype virus pNL4.3ΔEnvLuc-HXB2; settings: multi-dosing time assay, 2 h after spinoculation (post-infection)
HIV-1 IIIB [4] = settings: read-out: IC50 IIIB; PBMCs, 7 days, P24 ELISA
HIV-1 ADA-M [5] = settings: read-out: IC50 ADA-M; PBMCs, 7 days, P24 ELISA
[6] = test system: non-B HIV-1 primary clinical isolate #1; settings: non-B primary clinical isolate #1, 2 h
[7] = test system: non-B HIV-1 primary clinical isolate #2; settings: non-B primary clinical isolate #2, 2 h
HIV-1 = assay: microbe, parasite or virus in culture; format: cell-based; settings: for Anti-HIV activity: piceatannol analogues, pseudotype and MTT assay; for IC50: Human immunodeficiency virus 1, read-out: IC50 anti-HIV-1 activity
Text: (§1) Since molecular details of piceatannol interaction with its target(s) are currently not available, we performed a structure-activity relationship (SAR) study with the aim to understand the chemical and pharmacophoric features of piceatannol that are relevant for its anti-HIV activity. Seventeen chemical analogues of piceatannol (molecules 1–17, Figure 6) were designed and retrieved from commercial vendors and from an in-house library of natural products and their derivatives and tested in vitro against HIV-1 entry and HIV-1 infection using the pseudotype and the MTT assay, respectively. […] Besides, the two flavones hispidulin 14 and norartocarpetin 15, and the two styrene derivatives 16 and methyl ferulate 17 were tested.

HIV-1 IIIB [8] = assay: microbe, parasite or virus in culture; settings: Human immunodeficiency virus 1, IIIB, PBMC, 168 h, read-out: IC50 IIIB
HIV-1 ADA-M [9] = assay: microbe, parasite or virus in culture; settings: Human immunodeficiency virus 1, PBMC, 168 h, read-out: IC50 ADA-M
[10] = test system: non-B HIV-1 primary clinical isolate #1; assay: microbe, parasite or virus in culture; settings: Human immunodeficiency virus 1, PBMC, 168 h, read-out: IC50 Clinical isolate #1
[11] = test system: non-B HIV-1 primary clinical isolate #2; assay: microbe, parasite or virus in culture; settings: Human immunodeficiency virus 1, PBMC, 168 h, read-out: IC50 Clinical isolate #2
[12] = Cytotoxicity of piceatannol analogues
Text: as §1

Work on `O=C1c2c(O)cc(O)cc2OC(c2ccc(O)c(O)c2)C1O` (centres unmarked) [taxifolin] yielded an IC50 [1] of 240 ± 3 µM.

With `Oc1ccc([C@H]2Oc3cc(O)ccc3[C@@H](c3c(O)cc(O)c4c3O[C@H](c3ccc(O)cc3)[C@H](O)C4)[C@@H]2O)cc1` [guibourtinidol-(4α→8)-epiafzelechin] the “Inhibition of viral fusion” value (HIV-1 fusion) was “inhibited viral fusion similarly to CE”, the “Inhibition of gp120/CD4 binding” value [2] was “not guibourtinidol-(4α→8)-epiafzelechin” and the IC50 [1] was 42.5 µM.

In the case of “CCL5: chemokine C-C motif chemokine ligand 5, positive control for binding CCR5”, the “Inhibition of CCR5 binding” value (CCR5) is reported as “inhibited”.

For `CCCCCCCCCCCCCCCC(=O)O` [palmitic acid], the IC50 [1] was 87.5 ± 16.1 µM.

For `Cc1nnc(C(=O)NC(C)(C)c2nc(C(=O)NCc3ccc(F)cc3)c(O)c(=O)n2C)o1` [raltegravir, reference compound], the “Inhibitory effect when added after infection” value [3] was “inhibited HIV-1 infection”.

enfuvirtide gave an IC50 (HIV-1 IIIB [4]) of 0.64 nM, an IC50 (HIV-1 ADA-M [5]) of 0.67 nM and an IC50 [6] of 8.25 nM. For the same molecule, the IC50 [7] was 1.93 nM.

For `COc1cc(/C=C/c2ccc(O)cc2)cc(OC)c1` [Compound 1], the Anti-HIV activity (HIV-1) was “inactive”.

With `O=C1Nc2ccc(Cl)cc2[C@@](C#CC2CC2)(C(F)(F)F)O1` [EFV, efavirenz] the IC50 (HIV-1 IIIB [8]) was 0.1 nM, the IC50 (HIV-1 ADA-M [9]) was 0.17 nM and the IC50 [10] was > 10 nM. The IC50 [11] was > 10 nM.

With `CC(=O)Oc1ccc(/C=C/c2cc(OC(C)=O)cc(OC(C)=O)c2)cc1` [Compound 2] the Anti-HIV activity (HIV-1) was “inactive”.

For `C[C@@]12OC(=O)C[C@@H]1[C@H]1Oc3c(c(O)cc(O)c3[C@@H]3c4ccc(O)cc4O[C@H](c4ccc(O)cc4)[C@H]3O)C[C@H]1O2` [cassiabrevone], the “Inhibition of viral fusion” value (HIV-1 fusion) was “inhibited viral fusion similarly to CE”, the “Inhibition of gp120/CD4 binding” value [2] was “inhibited significantly gp120/CD4 binding activity in a dose-dependent manner” and the IC50 [1] was 31 µM.

In the case of `Cc1cn([C@H]2C[C@H](N=[N+]=[N-])[C@@H](CO)O2)c(=O)[nH]c1=O` [AZT, azidothymidine], the IC50 (HIV-1 IIIB [8]) is reported as 7.07 nM, the IC50 (HIV-1 ADA-M [9]) is reported as 7.31 nM and the IC50 [10] is reported as 6.7 nM. For the same molecule, the IC50 [11] was > 1000 nM.

In the case of `COC(=O)/C=C/c1ccc(O)c(OC)c1` [Compound 17, methyl ferulate], the IC50 (HIV-1) is reported as 600 ± 22 µM.

`CC1(C)CC[C@]2(C(=O)O)CC[C@]3(C)C(=CC[C@@H]4[C@@]5(C)CC[C@H](O)C(C)(C)[C@@H]5CC[C@]43C)[C@@H]2C1` [oleanolic acid] gave an IC50 [1] of 34.9 ± 9.09 µM.

In the case of `CC(C)=CCc1c(O)cc(O)c(CC=C(C)C)c1/C=C/c1ccccc1` [Compound 12], the Anti-HIV activity (HIV-1) is reported as “inactive”.

With `O=c1cc(-c2ccc(O)cc2O)oc2cc(O)cc(O)c12` [Compound 15, norartocarpetin] the IC50 (HIV-1) was 39 ± 5 µM and the CC50 [12] was > 500 µM.
